In the supplement of paper PMC10627819:

Experiments:
[1] = test system: S. aureus DSM 20231; experiment: fitness (endpoint OD595 vs no drug) (fraction); higher = more growth
In short: (§1)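 With the first reading as background, OD595 was measured every 30 min for 14 h in 384-well plates kept at 37 °C and inoculated at OD595 0.01. TSB, LB Lennox or CY was the medium. Fitness is the optical density at the transition into stationary phase divided by the robust mean of no-drug control wells, with a cap of 1.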

[2] = test system: B. subtilis 168; experiment: as above
In short: as §1

[3] = test system: S. aureus Newman; experiment: as above
In short: as §1

[4] = test system: S. pneumoniae D39V; experiment: as above
In short: as §1

[5] = test system: S. aureus DSM 20231; experiment: Bliss interaction score (quartile over a dose matrix) (fitness difference); higher = more antagonism (negative = synergy)
In short: (§2)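 The Bliss score is observed fitness minus expected fitness, where the expected value is the product of single-drug fitness values inferred from combination data. Fitness is OD595 at entry into stationary phase normalised to the plate's robust no-drug mean and capped at 1. Scores are reported as quartiles spanning technical, biological and donor/recipient replicates.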

[6] = test system: B. subtilis 168; experiment: as above
In short: as §2

[7] = test system: S. aureus Newman; experiment: as above
In short: as §2

[8] = test system: S. pneumoniae D39V; experiment: as above
In short: as §2
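Wherever Bliss interaction score (quartile over a dose matrix) is given: first quartile when negative (synergy) and third quartile when positive (antagonism).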
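Wherever fitness (endpoint OD595 vs no drug) is given: OD595 on entry to stationary phase over no-drug wells; at most 1.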

Cc1ncc([N+](=O)[O-])n1CCO [Metronidazole] + CC1=C\[C@@H](O)CC(=O)Cc2nc(co2)C(=O)N2CCC=C2C(=O)O[C@H](C(C)C)[C@H](C)/C=C/C(=O)NC\C=C\1 [Virginiamycin M1]
Conditions	fitness
[1], first compound 0.625 µg/mL, partner 0.0625 µg/mL	≥ 1
[1], first compound 0.625 µg/mL, partner 0.125 µg/mL	≥ 1
[1], first compound 0.625 µg/mL, partner 0.25 µg/mL	≥ 1
[1], first compound 1.25 µg/mL, partner 0.0625 µg/mL	≥ 1
[1], first compound 1.25 µg/mL, partner 0.125 µg/mL	≥ 1
[1], first compound 1.25 µg/mL, partner 0.25 µg/mL	≥ 1
[1], first compound 2.5 µg/mL, partner 0.0625 µg/mL	≥ 1
[1], first compound 2.5 µg/mL, partner 0.125 µg/mL	≥ 1
[1], first compound 2.5 µg/mL, partner 0.25 µg/mL	≥ 1
[2], first compound 0.625 µg/mL, partner 0.0625 µg/mL	0.995
[2], first compound 0.625 µg/mL, partner 0.125 µg/mL	0.946
[2], first compound 0.625 µg/mL, partner 0.25 µg/mL	0.956
[2], first compound 1.25 µg/mL, partner 0.0625 µg/mL	0.951
[2], first compound 1.25 µg/mL, partner 0.125 µg/mL	0.938
[2], first compound 1.25 µg/mL, partner 0.25 µg/mL	≥ 1
[2], first compound 2.5 µg/mL, partner 0.0625 µg/mL	0.929
[2], first compound 2.5 µg/mL, partner 0.125 µg/mL	0.944
[2], first compound 2.5 µg/mL, partner 0.25 µg/mL	0.96
[3], first compound 0.625 µg/mL, partner 0.0625 µg/mL	0.97
[3], first compound 0.625 µg/mL, partner 0.125 µg/mL	0.973
[3], first compound 0.625 µg/mL, partner 0.25 µg/mL	0.975
[3], first compound 1.25 µg/mL, partner 0.0625 µg/mL	0.984
[3], first compound 1.25 µg/mL, partner 0.125 µg/mL	0.993
[3], first compound 1.25 µg/mL, partner 0.25 µg/mL	≥ 1
[3], first compound 2.5 µg/mL, partner 0.0625 µg/mL	0.992
[3], first compound 2.5 µg/mL, partner 0.125 µg/mL	≥ 1
[3], first compound 2.5 µg/mL, partner 0.25 µg/mL	0.991
[4], first compound 1.073 µg/mL, partner 0.5 µg/mL	≥ 1
[4], first compound 1.073 µg/mL, partner 1 µg/mL	≥ 1
[4], first compound 1.073 µg/mL, partner 2 µg/mL	≥ 1
[4], first compound 1.25 µg/mL, partner 2 µg/mL	0.944
[4], first compound 2.145 µg/mL, partner 0.5 µg/mL	0.912
[4], first compound 2.145 µg/mL, partner 1 µg/mL	0.945
[4], first compound 2.145 µg/mL, partner 2 µg/mL	0.877
[4], first compound 2.5 µg/mL, partner 2 µg/mL	0.94
[4], first compound 4.29 µg/mL, partner 0.5 µg/mL	≥ 1
[4], first compound 4.29 µg/mL, partner 1 µg/mL	0.994
[4], first compound 4.29 µg/mL, partner 2 µg/mL	≥ 1
[4], first compound 5 µg/mL, partner 2 µg/mL	0.946

fitness, one replicate
Conditions	first compound 0.625 µg/mL	first compound 1.25 µg/mL	first compound 2.5 µg/mL	first compound 5 µg/mL
[1], partner 0.5 µg/mL	0.825	0.842	0.978	–
[1], partner 1 µg/mL	0.725	0.827	0.908	–
[3], partner 0.5 µg/mL	0.902	0.899	0.89	–
[3], partner 1 µg/mL	0.912	0.922	≥ 1	–
[3], partner 2 µg/mL	0.919	0.919	0.949	–
[4], partner 0.15 µg/mL	–	≥ 1	≥ 1	≥ 1
[4], partner 0.3 µg/mL	–	≥ 1	0.987	0.96
[4], partner 0.5 µg/mL	–	≥ 1	0.973	≥ 1
[4], partner 1 µg/mL	–	≥ 1	≥ 1	≥ 1

Conditions	Bliss interaction score
[5]	0.0516
[6]	-0.0294
[7]	0.0634
[8]	0.0226

COc1cccc2c1C(=O)c1c(O)c3c(c(O)c1C2=O)C[C@@](O)(C(=O)CO)C[C@@H]3O[C@H]1C[C@H](N)[C@H](O)[C@H](C)O1 [Doxorubicin] + COc1c(N2C[C@@H]3CCCN[C@@H]3C2)c(F)cc2c(=O)c(C(=O)O)cn(C3CC3)c12 [Moxifloxacin]
fitness
Conditions	first compound 0.25 µg/mL	first compound 0.5 µg/mL	first compound 0.625 µg/mL	first compound 1 µg/mL	first compound 1.25 µg/mL	first compound 2.5 µg/mL
[1], partner 0.0075 µg/mL	–	–	0.751	–	0.78	0.735
[1], partner 0.015 µg/mL	–	–	0.759	–	0.764	0.706
[1], partner 0.03 µg/mL	–	–	0.623	–	0.631	0.618
[2], partner 0.0312 µg/mL	–	–	0.0436	–	0.0321	0.0239
[2], partner 0.0625 µg/mL	–	–	0.0396	–	0.0329	0.0327
[2], partner 0.125 µg/mL	–	–	0.0249	–	0.0462	0.026
[2], partner 2 µg/mL	–	–	0.0338	–	0.0341	0.0223
[2], partner 4 µg/mL	–	–	0.0299	–	0.0351	0.0369
[2], partner 8 µg/mL	–	–	0.0347	–	0.0318	0.0314
[3], partner 0.0075 µg/mL	–	–	0.756	–	0.722	0.659
[3], partner 0.015 µg/mL	–	–	0.66	–	0.667	0.611
[4], partner 0.005 µg/mL	0.916	0.919	–	0.812	–	–
[4], partner 0.01 µg/mL	0.955	0.911	–	0.857	–	–
[4], partner 0.02 µg/mL	0.894	0.822	–	0.779	–	–
[4], partner 0.0312 µg/mL	0.0684	0.0433	–	0.0394	–	–
[4], partner 0.0625 µg/mL	0.0549	0.0614	–	0.0753	–	–
[4], partner 0.125 µg/mL	0.0583	0.0523	–	0.0416	–	–

fitness, [1], one replicate
Conditions	first compound 0.625 µg/mL	first compound 1.25 µg/mL	first compound 2.5 µg/mL
partner 0.06 µg/mL	0.664	0.655	0.638
partner 0.12 µg/mL	0.575	0.531	0.537

Conditions	Bliss interaction score
[5]	0.0448
[6]	-0.0247
[7]	0.177
[8]	-0.0668

COc1cccc2c1C(=O)c1c(O)c3c(c(O)c1C2=O)C[C@@](O)(C(=O)CO)C[C@@H]3O[C@H]1C[C@H](N)[C@H](O)[C@H](C)O1 [Doxorubicin] + O=C(O[C@@H]1Cc2c(O)cc(O)cc2O[C@@H]1c1cc(O)c(O)c(O)c1)c1cc(O)c(O)c(O)c1 [EGCG]
fitness
Conditions	partner 6.25 µg/mL	partner 12.5 µg/mL	partner 25 µg/mL	partner 50 µg/mL
[1], first compound 0.625 µg/mL	–	0.688	0.707	–
[1], first compound 1.25 µg/mL	–	0.708	0.676	–
[1], first compound 2.5 µg/mL	–	0.728	0.715	–
[2], first compound 0.625 µg/mL	0.934	0.617	–	–
[2], first compound 1.25 µg/mL	0.932	0.554	–	–
[2], first compound 2.5 µg/mL	0.737	0.429	–	–
[3], first compound 0.625 µg/mL	–	0.731	0.712	–
[3], first compound 1.25 µg/mL	–	0.705	0.703	0.594
[3], first compound 2.5 µg/mL	–	0.678	0.66	0.617
[4], first compound 0.25 µg/mL	–	0.916	0.987	0.924
[4], first compound 0.5 µg/mL	–	0.904	0.845	≥ 1
[4], first compound 1 µg/mL	–	–	0.804	0.903

Conditions	Bliss interaction score
[5]	-0.107
[6]	-0.0819
[7]	0.0447
[8]	0.0782
